Laboratory results from ChEMBL document CHEMBL5257018, “Novel Strategies for the Treatment of Pseudomonas aeruginosa Infections” (J Med Chem, 2016).

Columns and labels:
Pseudomonas aeruginosa [1] = experiment: Antibiofilm activity against Pseudomonas aeruginosa PAO1 assessed as inhibition of biofilm formation; format: functional, organism-based
Pseudomonas aeruginosa [2] = experiment: Antibiofilm activity against Pseudomonas aeruginosa PA14 assessed as inhibition of biofilm formation; format: functional, organism-based
[3] = Inhibition of Pseudomonas aeruginosa FabI
Pseudomonas aeruginosa [4] = experiment: Antibiofilm activity against Pseudomonas aeruginosa PA14 assessed as inhibition of biofilm formation at 100 uM; format: functional; set-up: scale not given: the % may be the effect or the level left
[5] = Binding affinity to D-galactose (unknown origin) assessed as dissociation constant
[6] = Antagonist activity at Pseudomonas aeruginosa MvfR
[7] = Inhibition of quorum sensing system in Pseudomonas aeruginosa PAO1 assessed as decrease in pqsR expression by PCR analysis

Compound `C/C(=C\c1ccccc1)Cn1cc(CCCCCc2c[nH]c(N)n2)nn1` has an IC50 (Pseudomonas aeruginosa [1]) of 5.6 µM and an IC50 (Pseudomonas aeruginosa [2]) of 530 nM.

`Oc1cc(Cl)ccc1Oc1ccc(Cl)cc1Cl` [TRICLOSAN] gave an IC50 [3] of 200 nM.

`CCCCCCS(=O)(=O)NCCCc1c[nH]c(N)n1` showed an Activity (Pseudomonas aeruginosa [4]) of 42%.

`O=C[C@H](O)[C@@H](O)[C@@H](O)[C@H](O)CO` [GALACTOSE] showed a Kd [5] of 87.5 µM.

Compound `CCCCCCCc1[nH]c2ccc([N+](=O)[O-])cc2c(=O)c1C(N)=O` has an IC50 [6] of 2 nM and an IC50 [7] of 2000 nM.
